Marks after values point to notes of the source that are not given here.
Tested on: CARCINOME DU POUMON DE LEWIS
Test: Antitumour activity on Lewis lung carcinoma implanted i.m. in mice
Assay type: in vivo, souris C57Bl/6
Conditions: 60 mg/kg i.p. x j 1,5,9
Description: Les tests d'activité antitumorale ont été conduits au sein du Screening and Pharmacology Group de l'E.O.R.T.C., implanté à l'Institut Mario Negri de Milan.
Ces essais ont été conduits soit en mono-injection à différentes doses au jour J+1 suivant la greffe de la tumeur, soit en poly-injections chroniques Q1D, soit en protocoles Q4D.

**Q.** `O=P1(N(CCCl)CCCl)NCCCO1` (stereo not shown) [CPA, Cyclophosphamide, reference compound] was tested. Which “Volume de la tumeur (d^2.D/2)cm^3 ± S.E.” value (jour 17) did it give?
**A.** 0,57±0,16* cm^3

**Q.** And the “Volume de la tumeur (d^2.D/2)cm^3 ± S.E.” value (jour 20)?
**A.** 1,30±0,17* cm^3

**Q.** What about the “Volume de la tumeur (d^2.D/2)cm^3 ± S.E.” value (jour 24) of the same compound?
**A.** 3,03±0,25* cm^3

**Q.** What about the “Poids moyen de la tumeur (g ± S.E.)” value (sacrifice jour 25) of the same compound?
**A.** 4,14 ± 0,27 g

Source: patent EP0240392A1, “Compounds of the cyclophosphazene type, process for their preparation and pharmaceutical preparation containing them” (CENTRE NATIONAL DE LA RECHERCHE SCIENTIFIQUE (CNRS), priority 1986, dated 1987)
